The source of these data is patent publication US20110118277A1, “METHOD OF TREATING LIVER DISEASE” (priority 2003, published 2011).

Assay [1] relates to Mouse hepatic oval cells (HOC). Kind of assay: Oval cell growth in culture (WST-8 cell number assay). Format: cell-based. Particulars: 48 hours; for effect on NE-induced oval cell proliferation: prazosin 10 μM; for effect on NE-induced oval cell proliferation / effect on ISO-induced oval cell proliferation: pertussis toxin 100 ng/ml, PD98059 20 μM, SB202190 10 μM; for effect on ISO-induced oval cell proliferation: propranolol 10 μM. As to the method:
Mouse hepatic oval cells (HOC) (from Dr. Bryon Petersen, University of Florida College of Medicine, Gainesville, Fla.) were maintained in culture with Iscove's modified DMEM according to the protocol described in PNAS 99: 8078-8083, 2002. To confirm that the cells retained their oval cell phenotype in our hands, expression of the embryonic isoform of pyruvate kinase (M2-PK) was evaluated by immunocytochemistry and immunoblot.
Sub-confluent HOC were harvested by gentle trypsinisation and resuspended in serum-free Iscove's modified Dulbecco's minimal essential medium (DMEM), at a density of 5,000 cells/100 μl/well in 96-well plates. […] After 44 hours, cell numbers were assessed by a further 4 h incubation with WST-8 tetrazolium reagent (Dojindo Molecular Technologies, Gaithersburg, Md.) as described in J Clin Invest 106: 501-509, 2000. In viable cells, the tetrazolium salt is metabolized to a colorimetric dye and cell number is proportional to the signal intensity at 450 nm Therefore, this assay reliably detects treatment-induced changes in cell number.
Oval cells were cultured in serum free medium (SF), serum or serum plus increasing concentrations of NE (a) or ISO (c). After 48 hours, the numbers of cells in culture were evaluated. […] Cell numbers were determined after 48 hours.
In general terms: Tetrazolium dyes change colour on reduction, which living cells bring about.

Assay [2] relates to oval cells. Kind of assay: Oval cell accumulation in Dbh-deficient mice fed MCD diet plus ethionine. The assay is classed as in vivo, mouse. Particulars: 4 weeks, ISO infused, FIG. 11.
Excerpt: Male Dbh* C57B 116 mice and their heterozygous littermates were generated and maintained as previously described in Cell 91: 583-592, 1997, and used at 30-40 weeks of age. Wild type C57B 116 mice were from Jackson Laboratory (Bar Harbor, Me.) Animals were allowed access to diets and water ad libitum. To induce oval cell expansion, mice were fed methionine choline deficient diets (ICN, Aurora, Ohio) supplemented with 0.15% Ethionine in the drinking water for 4 weeks. […]
Details of the staining procedures are as described in Am J Pathol 161: 521-530, 2002. […] Mouse monoclonal OV6 antibody and rat anti-cytokeratin 19 were detected using the DAKO Animal Research Kit, peroxidase (Dako, Denmark). The rabbit polyclonal antibody against 56 and 64 kiD human callus cytokeratins was detected by anti-rabbit Envision (Dako, Denmark) as described in J Pathol 199:191-200, 2003. […]
For each liver section, the number of oval cells in 5, randomly selected, non-overlapping, high power (×40 objective) fields was counted. […] Interlobular bile ducts were not considered progenitor cells and, thus not counted as such.
Dbh* and their control Dbh* littermates were fed methionine choline deficient (MCD) diets to induce oval cell expansion. […] Oval cell numbers were counted in 5 randomly selected fields/section from 4 mice/group. […]

In the case of `COc1cccc(-c2cc(=O)c3ccccc3o2)c1N` [PD98059], in assay [1], the “effect on NE-induced oval cell proliferation” value is “significantly attenuated” and the “effect on ISO-induced oval cell proliferation” value was “significantly attenuated”.

For `CC(C)NCC(O)c1ccc(O)c(O)c1` (centres unmarked) [ISO, isoprenaline], in assay [2], the “hepatic oval cell accumulation in Dbh-deficient mice” value is given as “p<0.05 Dbh*+ISO versus Dbh*”. Besides, in assay [1] (5% serum), the “effect on proliferation of cultured oval cells” value is “promotes the proliferation of oval cells”. Also, in assay [1] (ISO, 5% serum), the “concentration of peak proliferative activity (biphasic), first peak” value is 100 nM and the “concentration of peak proliferative activity (biphasic), second peak” value stood at 10 mM.

Turning to `CC(C)NCC(O)COc1cccc2ccccc12` (centres unmarked) [propranolol], the “effect on ISO-induced oval cell proliferation” value in assay [1] is “attenuated”.

As to pertussis toxin, in assay [1], the “effect on NE-induced oval cell proliferation” value is given as “significantly attenuated” and the “effect on ISO-induced oval cell proliferation” value is reported as “significantly attenuated”.

Turning to `Oc1ccc(-c2nc(-c3ccncc3)c(-c3ccc(F)cc3)[nH]2)cc1` [SB202190], in assay [1], the “effect on NE-induced oval cell proliferation” value is “tends to reduce the effect of NE and ISO, but this is not statistically significant”; the “effect on ISO-induced oval cell proliferation” value is “tends to reduce the effect of NE and ISO, but this is not statistically significant”.

With `NC[C@H](O)c1ccc(O)c(O)c1` [NE, norepinephrine], the “effect on proliferation of cultured oval cells” value in assay [1] (5% serum) was “significantly promote the proliferation of cultured oval cells”. Moreover, in assay [1] (NE, 5% serum), the “concentration of maximal proliferative effect” value turned out to be 100 nM and the “concentration up to which the proliferative effect persists” value is “up to 100 μM”.
